{"source": "patent US20090317372A1", "about": "“SMALL MOLECULES FOR THE REDUCTION OF HIGH BLOOD GLUCOSE LEVEL” (priority 2008, published 2009)", "type_in_all_cases": "in vivo", "key": {"[1]": {"tested_on": "mice with PC-3 tumor", "experiment": "Glucose tolerance test in the PC-3 tumor model, chronic and acute CCcompound1", "description": "The experimental PC-3 human tumors were developed in a homozygous line of C.B.-171 cr scid/scid adult female mice that were kept at specified pathogen free (SPF) hygienic level. Treatments with CCcompound1 (4.5 mg/kg) were started on day 12 after tumor implantation and conducted for 5+5 days with 2 treatment-free days inserted between the 2 series of treatments. A control group (10 mice) received no treatment, while another group (10 mice) received 4.5-mg/kg of CCcompound1 once every day between days 12-24. The results, shown in TABLE 8, indicate that between days 12 and 24 after tumor implantation, the prostate tumor caused about 6.9-g loss in lean body weight (4.1-g loss in total body weight). In contrast, animals treated with CCcompound1 actually gained 6.3-g lean body weight.\nTumors and cachexia are usually associated with insulin resistance. […] Both groups were starved for 14 hours and divided into two sub-groups; one subgroup remained untreated on day 25, another subgroup was administered 4.5-mg/kg of CCcompound1 60 min prior to administration of 3-g/kg of glucose. Blood samples were taken and blood glucose was analyzed as described earlier. […] In contrast, in animals that received chronic (C) treatment with CCcompound1 for 12 days, reduction in blood glucose level was clearly faster. Importantly, acute (A) treatment with CCcompound1 was almost as effective in cancer mice as in normal mice in reducing blood glucose level"}, "[2]": {"tested_on": "C57/BL/6 mice", "experiment": "Glucose tolerance test with normal mice, CCcompound1 and sub-optimal insulin", "conditions": "CCcompound1 4.5-mg/kg i.p. 60 min and/or insulin 0.02 IU 15 min prior to glucose", "description": "In this experiment, a sub-optimal dose of insulin (0.02 international unit-IU) was used to probe if CCcompound1 indeed can enhance the effect of insulin on blood glucose. Again C57/BL/6 female mice weighing 22-23-g and fasted for 14 hours prior to i.p. glucose administration (3-g/kg), were used. None of the animals received any food during the experiment other than glucose. The animals received i.p. injections of 4.5-mg/kg of CCcompound1 and/or 0.02 Unit insulin 60 min and 15 min prior to glucose administration, respectively. Blood samples were taken and glucose concentrations measured as indicated earlier. Each group included six animals. The data are the mean±std. dev. of 6 determinations, i.e. one determination with each of the six animals."}, "[3]": {"tested_on": "ob/ob mice", "experiment": "Blood glucose in ob/ob mice, CCcompound1 combined with human proteins AGP and TF", "description": "For each experimental group, ob/ob mice were chosen (5 mice in each group) that were 43 days old and weighed on average 40.3±1.9-g on the first day of experiment. Three groups of mice were treated with s.c. injection of 4.5-mg/kg CCcompound1 once every day for 17 days. Mice in one of these CCcompound1-treated groups received no other treatment, and their blood was drawn for glucose analysis on day 14 and 17 exactly 45 min after treatment. The second CCcompound1-treated group also received 0.5-mg/mouse (˜11 mg/kg) dose of greater than 98% pure commercial human transferrin [catalogue number, T 3309 according to 2004/2005 Sigma catalogue]. In this second group the blood was drawn on day 14 just prior to TF administration and on day 17 two hours after TF and 45 min after CCcompound1 administration. An additional group of animals received only TF treatment. The third CCcompound1-treated group also received 1.2-mg/mouse (26.6-mg/kg) dose of >99% pure human AGP [catalogue number G 9885 according to 2004/2005 Sigma catalogue]; in this group the blood was drawn on day 14 just prior to AGP administration and on day 17 two hours and 45 minutes after administration of AGP and CCcompound1, respectively. An additional group of animals received only AGP treatment, and yet another group of animals received no treatment at all. On day 1, prior to any treatment, the blood glucose level of all animals was in the range of 7.2-7.9 mM."}}, "data": [{"compound": "Cc1c(OCC(O)C[N+](C)(C)C)cc2c(=O)c3ccccc3sc2c1C.[Cl-]", "note": "(stereo not drawn) [CCcompound 1, [3-(3,4-Dimethyl-9-oxo-9H-thioxanthen-2-yloxy)-2-hydroxypropyl]trimethyl-ammonium chloride]", "values": [{"measurement": "Blood glucose", "setting": "[1]; acute (A): 4.5-mg/kg 60 min prior to glucose on day 25, 0 min", "value": "2.3 ± 0.2", "unit": "mM"}, {"measurement": "Blood glucose", "setting": "[1]; acute (A), 30 min", "value": "5.5 ± 0.6", "unit": "mM"}, {"measurement": "Blood glucose", "setting": "[1]; acute (A), 60 min", "value": "4.4 ± 0.7", "unit": "mM"}, {"measurement": "Blood glucose", "setting": "[1]; acute (A), 120 min", "value": "3.5 ± 0.4", "unit": "mM"}, {"measurement": "Blood glucose", "setting": "[1]; chronic (C): 4.5-mg/kg daily days 12-24, 0 min", "value": "1.8 ± 0.4", "unit": "mM"}, {"measurement": "Blood glucose", "setting": "[1]; chronic (C), 30 min", "value": "7.1 ± 0.5", "unit": "mM"}, {"measurement": "Blood glucose", "setting": "[1]; chronic (C), 60 min", "value": "6.5 ± 0.4", "unit": "mM"}, {"measurement": "Blood glucose", "setting": "[1]; chronic (C), 120 min", "value": "4.9 ± 0.6", "unit": "mM"}, {"measurement": "Blood glucose", "setting": "[1]; chronic + acute (C + A), 0 min", "value": "2.1 ± 0.5", "unit": "mM"}, {"measurement": "Blood glucose", "setting": "[1]; chronic + acute (C + A), 30 min", "value": "5.1 ± 0.4", "unit": "mM"}, {"measurement": "Blood glucose", "setting": "[1]; chronic + acute (C + A), 60 min", "value": "3.9 ± 0.4", "unit": "mM"}, {"measurement": "Blood glucose", "setting": "[1]; chronic + acute (C + A), 120 min", "value": "3.1 ± 0.3", "unit": "mM"}, {"measurement": "Blood glucose", "setting": "[2]; 0 min", "value": "1.8 ± 0.4", "unit": "mM"}, {"measurement": "Blood glucose", "setting": "[2]; 30 min", "value": "5.1 ± 0.5", "unit": "mM"}, {"measurement": "Blood glucose", "setting": "[2]; 60 min", "value": "4.1 ± 0.4", "unit": "mM"}, {"measurement": "Blood glucose", "setting": "[2]; 120 min", "value": "3.3 ± 0.3", "unit": "mM"}, {"measurement": "Blood glucose level", "setting": "[3]; 14th day, CC1 4.5-mg/kg s.c. daily, 45 min after treatment, blood drawn just prior to AGP or TF administration", "value": "10.9 ± 0.9", "unit": "mM"}, {"measurement": "Blood glucose level", "setting": "[3]; 17th day, 45 min after CC1 4.5-mg/kg s.c., two hours after TF 0.5-mg/mouse or AGP 1.2-mg/mouse", "value": "11.4 ± 0.4", "unit": "mM"}]}]}
